The values that follow come from patent EP4737449A1 (Changchun Genescience Pharmaceutical Co., Ltd., priority 2023, dated 2025).

For one test, the target named is T1, p53-Y220C mutant protein (Homo sapiens, UniProt P04637, Y220C).
T1 construct: The recombinant Y220C p53 DBD protein with his-tag
The test is described as follows: In vitro DNA binding activity assay (TR-FRET). Format: biochemical. Conditions: concentration required to increase the binding activity of protein to DNA by 50%. The method in brief: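 SC150, the compound concentration increasing p53-Y220C DNA binding by 50% relative to vehicle, came from background-corrected 665/615 nm TR-FRET ratios. His-tagged DBD and compound were preincubated 60 min at RT before biotin-DNA plus Eu-anti-His/streptavidin-d2 detection overnight in the dark.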

A further test relates to NUGC-3 cells. The test can be described thus: NUGC-3 cell proliferation assay (CTG, 7 days). To be noted: Homo sapiens, NUGC-3, 168 h, NUGC-3 cell proliferation, 7 days, CTG; read-out: IC50. Format: cell-based, human. The protocol:
The cells were cultured in strict accordance with ATCC requirements.
Cell culture medium: 1640 culture medium, 10% serum, 1% penicillin + streptomycin.
Culture conditions: 37°C, 95% air, 5% carbon dioxide.
Compounds (20 mM) were subjected to gradient dilution in DMSO: 10 gradients, 3-fold dilution, duplicate wells.
Positive and negative controls (100% dimethyl sulfoxide) were prepared.
The compounds that were gradient diluted with DMSO and positive and negative controls (1st and 2nd step), each 75 nL, were transferred to 384-well cell culture plates by Echo550.
The cells were washed twice with PBS, digested with trypsin, and centrifuged for cell counting.
The experiment can only be carried out when the cell viability is above 90%.
The cells were plated into 384-well cell culture plates, with 200 (NUGC-3) cells and 30 µL of culture medium per well.
The 384-well microplate was placed in a cell culture incubator for 7 days.
30 µL of CTG detection reagent was added to the 384-well microplate.
The 384-well microplate was incubated for 30 min at 37°C, 5% carbon dioxide in the dark.
The reading was performed by a multi-functional microplate reader Envision.
% Inhibition is calculated as follows: % Inhibition = 100−(Signalcmpd−SignalAve_BL)/(SignalAve_VC−SignalAve_BL)*100 [formula] • Signalcmpd: Average signal of the compound in the cell plate • Signalave_vc: Average signal of the negative control in the cell plate • Signalave_BL: Average signal of the blank wells in the cell plate
IC50 was calculated by fitting % inhibition and compound concentration logarithmically to a nonlinear regression (dose response - variable slope) using Graphpad 8.0. Table 2 IC50 of selected compounds in NUGC-3 cell proliferation assay

`CN1CC[C@@H](Nc2cccc3c(CC(F)(F)F)c(C#CCNC(=O)c4ccn(C)c4)nn23)[C@@H](F)C1` [Compound 270, N-[3-(7-{[(3S,4R)-3-fluoro-1-methylpiperidin-4-yl]amino}-3-(2,2,2-trifluoroethyl)pyrazolo[1,5-a]pyridin-2-yl)prop-2-yn-1-yl]-1-methyl-1H-pyrrole-3-carboxamide] had an SC150 at p53-Y220C mutant protein of 13 nM. Moreover, the IC50 (commonly the concentration at which inhibition is half-maximal) in the test on NUGC-3 cells stood at 0.818 µM.

Compound `CC(C)(C)n1ncc(C(=O)NCC#Cc2nn3c(N[C@@H]4CCNC[C@@H]4F)cccc3c2CC(F)(F)F)c1N` [Compound 353-4, 5-amino-1-tert-butyl-N-[3-(7-{[(3S,4R)-3-fluoropiperidin-4-yl]amino}-3-(2,2,2-trifluoroethyl)pyrazolo[1,5-a]pyridin-2-yl)prop-2-yn-1-yl]-1H-pyrazole-4-carboxamide] showed an SC150 on p53-Y220C mutant protein of 9 nM. Besides, in the test with NUGC-3 cells, the IC50 turned out to be 0.181 µM.

Consider `CN1CC[C@@H](Nc2cccc3c(CC(F)(F)F)c(C#CCNC(=O)c4csc(C(C)(C)C)n4)nn23)[C@@H](F)C1` [Compound 088, 2-tert-butyl-N-[3-(7-{[(3S,4R)-3-fluoro-1-methylpiperidin-4-yl]amino}-3-(2,2,2-trifluoroethyl)pyrazolo[1,5-a]pyridin-2-yl)prop-2-yn-1-yl]-1,3-thiazole-4-carboxamide], for which the IC50 with NUGC-3 cells is 7.11 µM.

Consider `CN1CC[C@@H](Nc2cccc3c(CC(F)(F)F)c(C#CCNC(=O)c4cnc(C(C)(C)C)s4)nn23)[C@@H](F)C1` [Compound 089, 2-tert-butyl-N-[3-(7-{[(3S,4R)-3-fluoro-1-methylpiperidin-4-yl]amino}-3-(2,2,2-trifluoroethyl)pyrazolo[1,5-a]pyridin-2-yl)prop-2-yn-1-yl]-1,3-thiazole-5-carboxamide], for which the IC50 in the test on NUGC-3 cells was 8.06 µM.

On to `CCN1CC[C@@H](Nc2cccc3c(CC(F)(F)F)c(C#CCNC(=O)c4cnn(CC)c4N)nn23)[C@@H](F)C1` [Compound 364, 5-amino-1-ethyl-N-(3-(7-{[(3S,4R)-1-ethyl-3-fluoropiperidin-4-yl]amino}-3-(2,2,2-trifluoroethyl)pyrazolo[1,5-a]pyridin-2-yl)prop-2-yn-1-yl)-1H-pyrazole-4-carboxamide], for which the IC50 with NUGC-3 cells stood at 0.154 µM.

For `CN1CC[C@@H](Nc2cccc3c(CC(F)(F)F)c(C#CCNC(=O)c4ccccc4)nn23)[C@@H](F)C1` [Compound 069, N-[3-(7-{[(3S,4R)-3-fluoro-1-methylpiperidin-4-yl]amino}-3-(2,2,2-trifluoroethyl)pyrazolo[1,5-a]pyridin-2-yl)prop-2-yn-1-yl]benzamide], the IC50 with NUGC-3 cells stood at 2.85 µM.

Regarding `COc1ccc(C(=O)NCC#Cc2nn3c(N[C@@H]4CCN(C)C[C@@H]4F)cccc3c2CC(F)(F)F)cc1` [Compound 070, N-[3-(7-{[(3S,4R)-3-fluoro-1-methylpiperidin-4-yl]amino}-3-(2,2,2-trifluoroethyl)pyrazolo[1,5-a]pyridin-2-yl)prop-2-yn-1-yl]-4-methoxybenzamide], the IC50 in the test on NUGC-3 cells amounted to 3.32 µM.

As for `CN1CC[C@@H](Nc2cccc3c(CC(F)(F)F)c(C#CCNC(=O)c4cnn(C5CC5)c4)nn23)[C@@H](F)C1` [Compound 005, 1-cyclopropyl-N-[3-(7-{[(3S,4R)-3-fluoro-1-methylpiperidin-4-yl]amino}-3-(2,2,2-trifluoroethyl)pyrazolo[1,5-a]pyridin-2-yl)prop-2-yn-1-yl]-1H-pyrazole-4-carboxamide], the SC150 at p53-Y220C mutant protein is listed as 16 nM.

`CN1CC[C@@H](Nc2cccc3c(CC(F)(F)F)c(C#CCNC(=O)c4ccc(F)cc4)nn23)[C@@H](F)C1` [Compound 076, 4-fluoro-N-[3-(7-{[(3S,4R)-3-fluoro-1-methylpiperidin-4-yl]amino}-3-(2,2,2-trifluoroethyl)pyrazolo[1,5-a]pyridin-2-yl)prop-2-yn-1-yl]benzamide]: the SC150 on p53-Y220C mutant protein stood at 75 nM.

Regarding `CN1CC[C@@H](Nc2cccc3c(CC(F)(F)F)c(C#CCNC(=O)c4coc(C(C)(C)C)n4)nn23)[C@@H](F)C1` [Compound 090, 2-tert-butyl-N-[3-(7-{[(3S,4R)-3-fluoro-1-methylpiperidin-4-yl]amino}-3-(2,2,2-trifluoroethyl)pyrazolo[1,5-a]pyridin-2-yl)prop-2-yn-1-yl]-1,3-oxazole-4-carboxamide], the IC50 in the test on NUGC-3 cells stood at 6.87 µM.

For the compound `Cc1cc(N)c(C(=O)NCC#Cc2nn3c(N[C@@H]4CCN(C)C[C@@H]4F)cccc3c2CC(F)(F)F)cn1` [Compound 294, 4-amino-N-[3-(7-{[(3S,4R)-3-fluoro-1-methylpiperidin-4-yl]amino}-3-(2,2,2-trifluoroethyl)pyrazolo[1,5-a]pyridin-2-yl)prop-2-yn-1-yl]-6-methylnicotinamide], at p53-Y220C mutant protein, the SC150 was determined as 39 nM.

Take `CN1CC[C@@H](Nc2cccc3c(CC(F)(F)F)c(C#CCNC(=O)c4cnn(CC(F)(F)F)c4)nn23)[C@@H](F)C1` [Compound 030]: the SC150 at p53-Y220C mutant protein is given as 18 nM.

Compound `COc1ccc(C(=O)NCC#Cc2nn3c(N[C@@H]4CCN(C)C[C@@H]4F)cccc3c2CC(F)(F)F)cn1` [Compound 266, N-(3-(7-{[(3S,4R)-3-fluoro-1-methylpiperidin-4-yl]amino}-3-(2,2,2-trifluoroethyl)pyrazolo[1,5-a]pyridin-2-yl)prop-2-yn-1-yl)-6-methoxynicotinamide] had an SC150 on p53-Y220C mutant protein of 46 nM.

`COCC(C)(C)n1cc(C(=O)NCC#Cc2nn3c(N[C@@H]4CCN(C)C[C@@H]4F)cccc3c2CC(F)(F)F)cn1` [Compound 022, N-[3-(7-{[(3S,4R)-3-fluoro-1-methylpiperidin-4-yl]amino}-3-(2,2,2-trifluoroethyl)pyrazolo[1,5-a]pyridin-2-yl)prop-2-yn-1-yl]-1-(1-methoxy-2-methylpropan-2-yl)-1H-pyrazole-4-carboxamide]: at p53-Y220C mutant protein, the SC150 came out at 8 nM.

The compound `COCC(O)CN1CCC(Nc2cccc3c(CC(F)(F)F)c(C#CCNC(=O)c4cnn(C(C)(C)C)c4N)nn23)CC1` (stereo not drawn) [Compound 371, 5-amino-1-tert-butyl-N-[3-(7-{[1-(2-hydroxy-3-methoxypropy)piperidin-4-yl]amino}-3-(2,2,2-trifluoroethyl)pyrazolo[1,5-a]pyridin-2-yl)prop-2-yn-1-yl]-1H-pyrazole-4-carboxamide] came in with an SC150 on p53-Y220C mutant protein of 12 nM.

In turn, `CN1CCCC(Nc2cccc3c(CC(F)(F)F)c(C#CCNC(=O)c4cnn(C(C)(C)C)c4N)nn23)CC1` (single isomer, unassigned) [Compound 369-B, 5-amino-1-tert-butyl-N-(3-(7-[(1-methylazepan-4-yl)amino]-3-(2,2,2-trifluoroethyl)pyrazolo[1,5-a]pyridin-2-yl)prop-2-yn-1-yl)-1H-pyrazole-4-carboxamide] had an SC150 at p53-Y220C mutant protein of 5 nM.

Take `COc1ccccc1C(=O)NCC#Cc1nn2c(N[C@@H]3CCN(C)C[C@@H]3F)cccc2c1CC(F)(F)F` [Compound 071, N-[3-(7-{[(3S,4R)-3-fluoro-1-methylpiperidin-4-yl]amino}-3-(2,2,2-trifluoroethyl)pyrazolo[1,5-a]pyridin-2-yl)prop-2-yn-1-yl]-2-methoxybenzamide]: the IC50 in the test on NUGC-3 cells stood at 4.56 µM.

Regarding `COc1cncc(C(=O)NCC#Cc2nn3c(N[C@@H]4CCN(C)C[C@@H]4F)cccc3c2CC(F)(F)F)c1` [Compound 335, N-[3-(7-{[(3S,4R)-3-fluoro-1-methylpiperidin-4-yl]amino}-3-(2,2,2-trifluoroethyl)pyrazolo[1,5-a]pyridin-2-yl)prop-2-yn-1-yl]-5-methoxynicotinamide], the SC150 on p53-Y220C mutant protein is on record as 41 nM.

In the case of `CN1CC[C@@H](Nc2cccc3c(CC(F)(F)F)c(C#CCNC(=O)c4ncn(C)n4)nn23)[C@@H](F)C1` [Compound 324, N-[3-(7-{[(3S,4R)-3-fluoro-1-methylpiperidin-4-yl]amino}-3-(2,2,2-trifluoroethyl)pyrazolo[1,5-a]pyridin-2-yl)prop-2-yn-1-yl]-1-methyl-1H-1,2,4-triazole-3-carboxamide], the SC150 on p53-Y220C mutant protein is recorded as 29 nM.

On p53-Y220C mutant protein, `CN1CC[C@@H](Nc2cccc3c(CC(F)(F)F)c(C#CCNC(=O)c4cnn(C5(C)CCOCC5)c4)nn23)[C@@H](F)C1` [Compound 014] came in with an SC150 of 13 nM.

As to `CN1CC[C@@H](Nc2cccc3c(CC(F)(F)F)c(C#CCNC(=O)c4cnn(C(F)(F)F)c4)nn23)[C@@H](F)C1` [Compound 024, N-[3-(7-{[(3S,4R)-3-fluoro-1-methylpiperidin-4-yl]amino}-3-(2,2,2-trifluoroethyl)pyrazolo[1,5-a]pyridin-2-yl)prop-2-yn-1-yl]-1-(trifluoromethyl)-1H-pyrazole-4-carboxamide], at p53-Y220C mutant protein, the SC150 was found to be 58 nM.

For the compound `Cc1ccc(C(=O)NCC#Cc2nn3c(N[C@@H]4CCN(C)C[C@@H]4F)cccc3c2CC(F)(F)F)cc1` [Compound 160, N-[3-(7-{[(3S,4R)-3-fluoro-1-methylpiperidin-4-yl]amino}-3-(2,2,2-trifluoroethyl)pyrazolo[1,5-a]pyridin-2-yl)prop-2-yn-1-yl]-4-methylbenzamide], the SC150 at p53-Y220C mutant protein worked out at 84 nM.
